Results taken from patent US20100016328A1, “PTERIN ANALOGS” (BioMarin Pharmaceutical, Inc., priority 2007, published 2010).
Where a name gives a salt, the structure may show the parent alone. Read-outs that look alike come from different tables or passages of the source.

How the values were obtained:
[1] = Stability in simulated gastric fluid; assay type: in vitro ADME; conditions: concentration of compound remaining over a 60 minute period; FIG. 5
Procedure: (§1) The stability of various compounds as disclosed herein were tested in human and rat and in simulated gastric fluid. Each compound was tested over an hour period for concentration of the compound remaining at each time point. The results are shown in FIGS. 3 (human plasma stability), 4 (rat plasma stability), and 5 (simulated gastric fluid stability) for the compounds of Example 2, 3, 4, and 20.

[2] = Stability in human plasma; assay type: in vitro ADME; conditions: concentration of compound remaining over a 60 minute period; FIG. 3
Procedure: as §1

Stability in rat plasma = assay type: in vitro ADME; conditions: concentration of compound remaining over a 60 minute period; FIG. 4
Procedure: as §1

[3] = Pharmacokinetics of BH4 and BH4 analogs given by oral gavage to monkeys; assay type: in vivo; conditions: fasted cynomolgus monkeys; for Tmax: equivalent of 80 mg of BH4, n=3, standard deviation in parenthesis; for AUC0-t / Cmax: equivalent of 80 mg of BH4, n=3, plasma over 25 hours, standard deviation in parenthesis
Procedure: Fasted cynomolgus monkeys were given BH4 and BH4 analogs by oral gavage (n=3), such that the amount of the analog administered was the equivalent of 80 mg of BH4. The plasma concentrations of the BH4, when administered directly, or the analogs was measured at various time points over a 25 hour period. The PK data is also shown in the following table, wherein the number in parenthesis is the standard deviation.

[4] = test system: human umbilical vein endothelial cells (HUVEC); assay: Nitric oxide production (nitrite+nitrate, Griess reaction) in NAS-pretreated HUVEC; assay type: cell-based; conditions: HUVEC pretreated with 3 mM NAS; for NO production (nitrite+nitrate): 50, 100, or 200 mM compound, 5-22 hours
Procedure: Cultured human umbilical vein endothelial cells (HUVEC) were pretreated with 3 mM N-acetylserotonin (NAS), an inhibitor of the enzyme sepiapterin reductase. Inhibition of this pathway typically results in loss of endogenous BH4, depressing the endogenous eNOS activity far below normal and provides an assay to test for restoration of eNOS activity.
Thus, subconfluent HUVECs were seeded in a 24-well plate and grown overnight in EGM2 medium (full growth medium). The next morning, fresh medium was added to the cells (300 μL/well), 3 mM NAS was added to the cells to decrease the endogenous BH4 levels. After an incubation of 1.5 hours, 50, 100, or 200 mM BH4 or compound of Example 5, Example 6, Example 7, or Example 9 were added to the cells. The cells were allowed to react with the BH4 or the compound of Example 5, Example 7, or Example 9 for 5-22 hours. The production of NO was then measured as changes in total (nitrite+nitrate) by the Griess reaction subsequent to nitrate reductase treatment. The percentage of nitrite+nitrate with BH4 or compound of Example 5, Example 7, or Example 9 is shown in FIG. 7 (after 5 hours); FIG. 8 (after 17 hours); and FIG. 9 (after 22 hours). The results for Example 6 are shown in FIG. 10 (after 5 hours) and FIG. 11 (after 20 hours).

[5] = design: species or system male Sprague Dawley rats; conditions: male, Sprague Dawley, rat, in vivo, po
Procedure: This example allows for comparison of the pharmacokinetics of the analog (Compound I) versus that of BH4 following single oral administration in rats.
With respect to the administered BH4, the maximum total biopterin concentrations in plasma 2 hrs and 1 hr post-dosing were 108 ng/ml (i.e., about 3 fold the endogenous level) and 1227 ng/ml (i.e., about 30 fold the endogenous level), respectively. […] The ratio of reduced biopterin to total biopterins in plasma (i.e., the reduced-form ratio) was relatively static (73%-96%).

[6] = cynomolgus monkey, plasma, read-out: Tmax

With CCC(=O)O[C@@H]([C@H](C)OC(=O)CC)[C@H]1CNc2nc(N)[nH]c(=O)c2N1C(=O)CC [Example 3, Propionic acid 1-(2-amino-4-oxo-5-propionyl-3,4,5,6,7,8-hexahydro-pteridin-6-yl)-2-propionyloxy-propyl ester] the “stability in simulated gastric fluid” value [1] was “high level of stability”, the “stability in human plasma” value [2] was “high level of stability” and the “stability in rat plasma” value (Stability in rat plasma) was “high level of stability”.

For CC(C)[C@H](N)C(=O)O[C@@H]([C@H](C)OC(=O)[C@@H](N)C(C)C)[C@H]1CNc2nc(N)[nH]c(=O)c2N1 [Example 10, 2-Amino-3-methyl-butyric acid 2-(2-amino-3-methyl-butyryloxy)-1-(2-amino-4-oxo-3,4,5,6,7,8-hexahydro-pteridin-6-yl)-propyl ester trihydrochloride], the Tmax [3, 6] was 1.83 h, the AUC0-t [3] was 625 (294) ng hr/mL and the Cmax [3] was 138 (123) ng/mL.

With C[C@H](OC(=O)[C@@H](N)CCCCN)[C@H](O)[C@H]1CNc2nc(N)[nH]c(=O)c2N1 [Example 7, 2,6-Diamino-hexanoic acid 2-(2-amino-4-oxo-3,4,5,6,7,8-hexahydro-pteridin-6-yl)-2-hydroxy-1-methyl-ethyl ester tri-hydrochloride] the Tmax [3, 6] was 2.67 h, the AUC0-t [3] was 572 (148) ng hr/mL and the Cmax [3] was 82.3 (27.2) ng/mL. For the same compound, the “effect on NAS-treated cells compared with Example 5” value (shortened to “effect … compared with Example 5”) [4] was “similar, if slightly reduced, effect” and the “NO production (nitrite+nitrate)” value [4] was “increased NO production in a dose-dependent manner”.

In the case of C[C@H](OC(=O)[C@@H]1CCCN1)[C@H](OC(=O)[C@@H]1CCCN1)[C@H]1CNc2nc(N)[nH]c(=O)c2N1 [Example 12, Pyrrolidine-2-carboxylic acid 1-(2-amino-4-oxo-3,4,5,6,7,8-hexahydro-pteridin-6-yl)-2-(pyrrolidine-2-carbonyloxy)-propyl ester trihydrochloride], the AUC0-t [3] is reported as 438 (211) ng hr/mL, the Cmax [3] is reported as 73.6 (42.9) ng/mL and the Tmax [3] is reported as 3.0 (1.0) hr.

With C[C@H](OC(=O)[C@@H]1CCCN1)[C@H](O)[C@H]1CNc2nc(N)[nH]c(=O)c2N1 [Example 9, Pyrrolidine-2-carboxylic acid 2-(2-amino-4-oxo-3,4,5,6,7,8-hexahydro-pteridin-6-yl)-2-hydroxy-1-methyl-ethyl ester dihydrochloride] the AUC0-t [3] was 384 (214) ng hr/mL, the Cmax [3] was 61.9 (34.8) ng/mL and the Tmax [3] was 2.0 (0)^ hr. The “effect … compared with Example 5” value [4] was “similar, if slightly reduced, effect” and the “NO production (nitrite+nitrate)” value [4] was “increased NO production in a dose-dependent manner”.

In the case of CCC(C)[C@H](N)C(=O)O[C@@H](C)[C@H](O)[C@H]1CNc2nc(N)[nH]c(=O)c2N1 (stereo in doubt) [Example 6, 2-Amino-3-methyl-pentanoic acid 2-(2-amino-4-oxo-3,4,5,6,7,8-hexahydro-pteridin-6-yl)-2-hydroxy-1-methyl-ethyl ester], the “effect … compared with Example 5” value [4] is reported as “similar, if slightly reduced, effect” and the “NO production (nitrite+nitrate)” value [4] is reported as “increased NO production in a dose-dependent manner”.

In the case of CCCC(=O)O[C@@H]([C@H](C)OC(=O)CCC)[C@H]1CNc2nc(N)[nH]c(=O)c2N1C(=O)CCC [Example 4, Butyric acid 1-(2-amino-5-butyryl-4-oxo-3,4,5,6,7,8-hexahydro-pteridin-6-yl)-2-butyryloxy-propyl ester], the “stability in simulated gastric fluid” value [1] is reported as “high level of stability”, the “stability in human plasma” value [2] is reported as “high level of stability” and the “stability in rat plasma” value (Stability in rat plasma) is reported as “high level of stability”.

In the case of C[C@H](O)[C@H](O)[C@H]1CNc2nc(N)[nH]c(=O)c2N1C(=O)[C@@H](N)CCCCN (stereo in doubt) [Example 15, 2-Amino-5-(2,6-diamino-hexanoyl)-6-(1,2-dihydroxy-propyl)-5,6,7,8-tetrahydro-1H-pteridin-4-one dihydrochloride], the AUC0-t [3] is reported as 36.8 (37.6) ng hr/mL, the Cmax [3] is reported as 5.7 (1.7) ng/mL and the Tmax [3] is reported as 12.0 (10.4) hr.

In the case of CC[C@H](C)[C@H](N)C(=O)N1c2c(nc(N)[nH]c2=O)NC[C@@H]1[C@@H](O)[C@H](C)O (stereo in doubt) [Example 14, 2-Amino-5-(2-amino-3-methyl-pentanoyl)-6-(1,2-dihydroxy-propyl)-5,6,7,8-tetrahydro-1H-pteridin-4-one hydrochloride], the AUC0-t [3] is reported as 63.2 (25.6) ng hr/mL, the Cmax [3] is reported as 5.23 (2.1) ng/mL and the Tmax [3] is reported as 12.1 (11.9) hr.

Compound CC(C)[C@H](N)C(=O)N1c2c(nc(N)[nH]c2=O)NC[C@@H]1[C@@H](O)[C@H](C)O (stereo in doubt) [Example 13, 2-Amino-5-(2-amino-3-methyl-butyryl)-6-(1,2-dihydroxy-propyl)-5,6,7,8-tetrahydro-1H-pteridin-4-one hydrochloride] has an AUC0-t [3] of 13.7 ng·h/mL, a Cmax [3] of 2.2 ng/mL and a Tmax [3] of 6.0 h.

For C[C@H](OC(=O)[C@@H](N)CCCCN)[C@H](OC(=O)[C@@H](N)CCCCN)[C@H]1CNc2nc(N)[nH]c(=O)c2N1 [Example 11, 2,6-Diamino-hexanoic acid 2-(2-amino-4-oxo-3,4,5,6,7,8-hexahydro-pteridin-6-yl)-2-(2,6-diamino-hexanoyloxy)-1-methyl-ethyl ester pentahydrochloride], the AUC0-t [3] was 617 (336) ng hr/mL, the Cmax [3] was 115 (65.4) ng/mL and the Tmax [3] was 1.5 (0.09) hr.

With CC(=O)O[C@@H]([C@H](C)OC(C)=O)[C@H]1CNc2nc(N)[nH]c(=O)c2N1C(C)=O [Example 2, Acetic acid 2-acetoxy-1-(5-acetyl-2-amino-4-oxo-3,4,5,6,7,8-hexahydro-pteridin-6-yl)-propyl ester] the “stability in simulated gastric fluid” value [1] was “high level of stability”, the “stability in human plasma” value [2] was “high level of stability” and the “stability in rat plasma” value (Stability in rat plasma) was “high level of stability”.

With C[C@H](O)[C@H](O)[C@H]1CNc2nc(N)[nH]c(=O)c2N1C(=O)[C@@H]1CCCN1 (stereo in doubt) [Example 16, 2-Amino-6-(1,2-dihydroxy-propyl)-5-(pyrrolidine-2-carbonyl)-5,6,7,8-tetrahydro-1H-pteridin-4-one dihydrochloride] the AUC0-t [3] was 88.1 (31.5) ng hr/mL, the Cmax [3] was 7.63 (2.7) ng/mL and the Tmax [3] was 6.0 (0)^ hr.

For C[C@H](O)[C@H](O)[C@H]1CNc2nc(N)[nH]c(=O)c2N1C(=O)OCc1ccccc1 (stereo in doubt) [Example 20, 2-Amino-6-(1,2-dihydroxy-propyl)-4-oxo-4,6,7,8-tetrahydro-1H-pteridine-5-carboxylic acid benzyl ester], the “stability in simulated gastric fluid” value [1] was “high level of stability”, the “stability in human plasma” value [2] was “high level of stability” and the “stability in rat plasma” value (Stability in rat plasma) was “high level of stability”.

For C[C@H](O)[C@H](O)[C@H]1CNc2nc(N)[nH]c(=O)c2N1 [BH4, Tetrahydrobiopterin], the “ratio of reduced biopterin to total biopterins in plasma (reduced-form ratio)” value [5] was 73-96%, the “maximum total biopterin concentration relative to the endogenous level” value ([5]; 10 mg/kg) was “about 3 fold” and the “time of maximum total biopterin concentration post-dosing” value ([5]; 10 mg/kg) was 2 h. For the same compound, the “time of return to the endogenous level post-dosing” value ([5]; 10 mg/kg) was 9 h, the “maximum total biopterin concentration relative to the endogenous level” value ([5]; 100 mg/kg) was “about 30 fold” and the “time of maximum total biopterin concentration post-dosing” value ([5]; 100 mg/kg) was 1 h. For the same compound, the “time of return to the endogenous level post-dosing” value ([5]; 100 mg/kg) was 24 h, the AUC0-t [3] was 288 (15.5) ng hr/mL and the Cmax [3] was 42.0 (12.6) ng/mL. For the same compound, the Tmax [3] was 3.0 (0)^ hr.
